Experimental data reported in patent publication US10344276B2, “Diagnostic and treatment for chronic and acute phase myeloid leukemia” (Duke University, priority 2009, dated 2019).

Legend:
[1] = tested on: blast crisis CML (AML) cells; test: Colony forming assay in methylcellulose media after Msi2 shRNA delivery; assay type: cell-based, mouse
Experimental: Lineage negative, NUP98-HOXA9-YFP positive cells from AML were sorted and infected retrovirally with either Vector-IRES-GFP or Numb-IRES-GFP. After 48 hours of infection, cells were sorted and serially plated on complete methylcellulose medium (Methocult GF M3434 from StemCell Technologies).
(§1) To determine if inhibiting Msi2 could impact the growth of established CML, and to rule out the possibility that the reduced incidence of leukemia in Gt mutants was due to developmental defects and examine if Msi2 knockdown affects AML maintenance, Msi expression was targeted using an alternate shRNA approach. A lineage-negative population was sorted from full blown AML cells, which contains AML stem cells. Lin− cells from NUP98-HOXA9/BCR-ABL-induced blast crisis leukemias were infected with either an shRNA retrovirus targeting Msi2 (shMsi; SEQ ID NO: 9) or firefly luciferase (shLuc; SEQ ID NO: 10) as a negative control and resorted, and Msi2 expression was analyzed by realtime RT-PCR. […] Error bars represent s.e.m. of triplicate PCRs (**p<0.01).
As a control, shRNA against LacZ was used. Error bars represent s.e.m. of triplicate PCRs (**p<0.01). […] Error bars represent s.e.m. of triplicate assay wells (**p<0.01). […] Error bars represent s.e.m. of triplicate PCRs (**p<0.01).

blast crisis CML / AML = test: Transplantation of shRNA-infected blast crisis CML/AML cells into irradiated mice; assay type: in vivo
From the text: Mouse models of CML were generated by transducing bone marrow stem and progenitor cells with retroviruses carrying BCR-ABL (chronic phase), or BCR-ABL and NUP98-HOXA9 (blast crisis phase) and transplanted into irradiated recipient mice. The development of CML was confirmed by flow cytometry and histopathology. Transgenic Notch reporter (TNR), Rag1−/−, and C57BL6/J were used as transplant donors, and C57Bl6/J CD45.1 and CD1 mice were used as transplant recipients. All mice were 8-12 weeks of age. Mice were bred and maintained on acidified water after transplantation in the animal care facility at Duke University Medical Center. All live animal experiments were performed according to protocols approved by the Duke University Institutional Animal Care and Use Committee. For Msi2 knockdown experiments, lineage negative blast crisis CML cells were infected with Msi2 or control Luciferase shRNA retroviral constructs and leukemia incidence monitored.
Bone marrow c-Kit+ or KLS cells from C57BL6/J or TNR mice were enriched and cultured overnight in X-vivo15 with 10% FBS, 50 μM 2-mercaptoethanol, 100 ng/mL SCF, and 20 ng/mL TPO in a 96 well U-bottom plate or 6 well plate. Subsequently, cells were infected with MSCV-BCR-ABL-IRES-YFP (or CFP) to generate CML, or MSCV-BCR-ABL-IRES-YFP (or CFP) and MSCV-NUP98-HOXA9-IRES-YFP (or NGFR) to generate AML. Cells were harvested 48 hours after infection and transplanted retro-orbitally into groups of 4-7 recipient mice. Recipients were lethally irradiated (10 Gy) for CML, and sublethally irradiated (7 Gy) for AML. For Numb overexpression, cells were infected with either MSCV-Numb-IRES-GFP (or hCD2) or MSCV-IRES-GFP (or hCD2) along with MSCV-BCR-ABL-IRES-YFP (or CFP) and MSCV-NUP98-HOXA9-IRES-NGFR (or YFP) and 20,000 to 100,000 sorted infected cells were transplanted per mouse. For secondary transplantation, cells from primary transplanted mice were sorted for either MSCV-Numb-IRES-GFP and MSCV-NUP98-HOXA9-YFP or MSCV-IRES-GFP and MSCV-NUP98-HOXA9-YFP, and 7,000 to 8,000 cells were transplanted per mouse. For ICN experiments, cells were infected with MSCV-ICN-IRES-CFP and MSCV-BCR-ABL-GFP, MSCV-ICN-IRES-CFP and MSCV-IRES-GFP, or MSCV-BCR-ABL-IRES-GFP and MSCV-IRES-CFP, and 10,000 to 20,000 KLS-derived or 200,000 to 500,000 c-kit+-derived sorted cells were transplanted per mouse. For the TNR mouse model, cells were infected with MSCV-BCR-ABL-IRES-YFP (or CFP) to generate CML or MSCV-BCR-ABL-IRES-YFP (or CFP) and MSCV-NUP98-HOXA9-IRES-NGFR to generate AML. 10,000 to 80,000 unsorted cells were transplanted per mouse. After transplantation, recipient mice were subsequently maintained on antibiotic water (sulfamethoxazole and trimethoprim) and evaluated daily for signs of morbidity, weight loss, failure to thrive, and splenomegaly. Premorbid animals were sacrificed by CO2 asphyxiation followed by cervical dislocation. Subsequently relevant tissues were harvested and analyzed by flow cytometry and histopathology.
Data shown is representative of two to three independent experiments.
The impact of Msi2 loss in AML propagation in vivo was also tested. Lin-negative cells from full blown AML were transduced either with an Msi2 shRNA retrovirus or luciferase shRNA virus, and the cells were transplanted into sublethally-irradiated mice. 11 of 13 mice transplanted with control knockdown AML became sick by 1 month post transplant.
Serial transplants were also done to test the presence of leukemia-initiating ability of control and Msi2 knockdown AML cells from the mice who suffered from leukemia.

Msi2 transcript = test: Msi2 knockdown measured by realtime RT-PCR; assay type: cell-based, mouse; conditions: Lin− cells from NUP98-HOXA9/BCR-ABL blast crisis leukemias; compared with shLuc control
Experimental: RNA was isolated using RNAqueous-Micro (Ambion), levels were equalized, and RNA was converted to cDNA using Superscript II reverse transcriptase (Invitrogen). Quantitative real time PCRs were performed using an iCycler (BioRad) by mixing cDNAs, iQ SYBR Green Supermix (BioRad) and gene specific primers. Results were normalized to the level of beta-2-microglobulin (B2m). Primer sequences are as follows: Numb-F, […] (SEQ ID NO: 1); Numb-R, […] (SEQ ID NO: 2); Msi1-F, […] (SEQ ID NO: 3); Msi1-R, […] (SEQ ID NO: 4); Msi2-F, […] (SEQ ID NO: 5); Msi2-R, […] (SEQ ID NO: 6); B2m-F, […] (SEQ ID NO: 7); B2m-R, […] (SEQ ID NO: 8).
as §1

## shMsi: shRNA retrovirus targeting Msi2, SEQ ID NO: 9, 5′-CCCAGATAGCCTTAGAGACTAT-3′
[1]; established blast crisis CML cells, vs control shRNA
  colony growth in vitro: reduced colony growth in vitro
[1]; methylcellulose media, Msi2 knockdown AML cells
  reduction in the number of colonies formed: 50-70%
Blast crisis CML / AML; 3000 or 10,000 cells transplanted
  AML incidence in serial transplants: loss in AML incidence
Blast crisis CML / AML; Lin-negative AML cells transduced, sublethally irradiated mice, 11 of 13 control mice sick by 1 month
  mice surviving beyond 1 month: more than half
Blast crisis CML / AML; Wright's stain of leukemic cells, primary transplant
  differentiation of leukemias that occurred: more differentiated
Blast crisis CML / AML; mice transplanted with Lin− cells from primary shRNA expressing leukemias, control 87%
  ability to propagate disease (mice succumbing): 25%
Blast crisis CML / AML; primary transplant of established blast crisis CML cells, vs shLuc
  disease incidence in vivo (survival curve): reduced disease incidence in vivo
Blast crisis CML / AML; surviving mice
  transplanted leukemic cells in peripheral blood of surviving mice: no detectable levels of transplanted leukemic cells
Msi2 transcript
  reduction in Msi2 transcript levels: 75-90%
